# Results as given in patent US20230054976A1, “METHODS FOR INHIBITION OF ALPHA-SYNUCLEIN mRNA USING SMALL MOLECULES” (The Scripps Research Institute, priority 2019, published 2023).
# “Also recorded” adds a separate entry of the source.
# Assays:
# ferritin 5′ UTR = assay: Luciferase reporter assay, ferritin 5′ UTR, SH-SY5Y cells; format: cell-based, human; details: 1 μM
# SH-SY5Y cells = assay: Cell viability (MTS) assay; format: cell-based, human; details: 0.25, 0.5 and 1 μM, 48 h
# Method: (§1) To assess if Synucleozid has a cytotoxic effect, SH-SY5Y cells were treated with 0.25 μM to 1 μM for 48 h, and cell viability and cytotoxicity were measured using CellTiter 96 Aqueous One Solution Cell Proliferation Assay (MTS) according to the manufacturers' instructions.
# as §1, with “0.25, 0.5 and” for “0.25 μM to”, “(MTS) and LDH release assay, respectively,” for “(MTS)”
# [1] = test system: 2-AP labeled SNCA IRE RNA; assay: 2-AP emission assay; format: binding, human; details: decrease of 2-AP emission
# Method: 2-AP emission assay. One μM 2-AP labeled SNCA IRE RNA was folded by heating to 65° C. for 5 min in 1× Assay Buffer and slowly cooling to room temperature. Bovine serum albumin (BSA) was then added to the RNA solution to 40 μg/mL. After adding Synucleozid to RNA solution at a final concentration […] of 100 μM, serial dilutions were prepared using 1× Assay Buffer including BSA supplemented with folded one μM 2-AP labeled SNCA IRE RNA. The solutions were incubated at room temperature for 30 min in dark and transferred into wells of black 384-well half area plates (Greiner). Fluorescence intensity was measured at room temperature with Tecan plate reader (Gain: 100, Integration time: 40 μs). Fluorescence excitation and emission wavelengths were set at 310 and 380 nm. The change of 2-AP fluorescence intensity as a function of Synucleozid concentration was fit to Eq. (1):
# (§2) EC50 was calculated from Eq. (1).
# [2] = target: RNA-1 (A bulge mutated to a base pair); assay: Competitive binding assay (2-AP), RNA-1
# Method: as §2
# [3] = target: RNA-6 (A bulge mutated to U or G bulge); assay: Competitive binding assay (2-AP), RNA-6
# Method: as §2
# [4] = target: RNA-7 (A bulge mutated to U or G bulge); assay: Competitive binding assay (2-AP), RNA-7
# Method: as §2
# [5] = test system: SNCA IRE dually labeled with Cy3 and Cy5; assay: FRET-based ASO-Bind-Map; format: binding, human; details: 1 μM, ASO 500 nM
# Method: FRET-based ASO-Bind-Map. The SNCA IRE dually labeled with Cy3 and Cy5 dyes (100 nM) was folded by heating at 65° C. for 5 min in 1× Assay Buffer and slowly cooling to room temperature. BSA was added to the RNA solutions to a final concentration of 40 μg/mL followed by addition of compound. The mixtures were incubated at room temperature for 30 min. Fluorescence spectra were then acquired as a function of time (in kinetics mode) for 20 min using a Cary Eclips fluorescence spectrophotometer, with excitation and emission wavelengths of 532/10 nm and 668/5 nm, respectively. The ASO of interest was then added to a final concentration of 500 nM, and fluorescence spectra were acquired as described above.
# SNCA mRNA = assay: ASO-Bind-Map in cells (gapmer ASO, RT-qPCR); format: cell-based, human; details: SH-SY5Y cells, gapmer 200 nM
# Method: Mapping Synucleozid's binding site in cells with ASO-Bind-Map. SH-SY5Y cells were treated with vehicle (DMSO) or Synucleozid at 60% confluency overnight and were then transfected with a gapmer ASO (200 nM) with Lipofectamine RNAiMAX (Invitrogen) according to the manufacturer's instructions. Mock samples were generated by treating cells with transfection reagent lacking oligonucleotide. RNA extraction, cDNA synthesis and RT-qPCR were performed as described above after 48 h. Primers for SNCA mRNA in this experiment cover sequences upstream and downstream of the IRE; forward primer: [NT]; reverse primer [NT].
# [6] = target: T1, IRP-1:SNCA IRE RNA complex (Homo sapiens, UniProt P21399); assay: In vitro displacement of IRPs by gel mobility shift assay, IRP-1; format: binding; details: 0.2, 1, 5 μM; pre-incubation 1-60 min
# T1 construct: purchased Abnova
# Method: In vitro displacement of IRPs by gel mobility shift assays. SNCA IRE hairpin RNA was 5′-end labeled with [γ-^32P]ATP as previously described^5. Approximately, 2 pmoles of ^32P labeled RNA per 20 μL reaction was folded in 1× Assay Buffer by heating at 65° C. for 5 min and slowly cooling to room temperature. As indicated, vehicle, Synucleozid (0.2, 1, 5 μM) or unlabeled IRE RNA (1 μM, folded as described above and used as a positive control) was added to the samples, and the samples were incubated at room temperature for varying amounts of time (1-60 min as indicated). Then, 0.5 μg IRP-1 or IRP-2 (Abnova) was added, and the samples were incubated at room temperature for an additional 30 min. An equal volume of 2× Native Gel Loading Buffer (2×TBE, 50% Glycerol, 0.025% (w/v) Bromophenol blue and Xylene cyanol FF) was added to each sample. Note, Native Gel Loading Buffer added to Synucleozid-treated samples was supplemented with the same concentration of Synucleozid as in the sample to maintain a constant concentration. IRP:IRE complexes and free IRE were separated on a native 15% polyacrylamide prepared 1×TBE supplemented with the same concentration of Synucleozid as in compound-treated samples, and imaged using a Bio-Rad PMI phosphorimager. Images were quantified with BioRad's Quantity One software.
# PrP 5′ UTR = details: SH-SY5Y cells
# tRNA = assay: Competitive binding assay (2-AP), tRNA
# Method: (§3) I and I0 are the observed fluorescence intensity in the presence and absence of 2-AP RNA. Δε is the difference between the fluorescence intensity in the absence and presence of infinite 2-AP RNA. […] EC50 was calculated from Eq. (1). […] The change of fluorescence intensity was fit to Eq. (2):
# (§4) θ is the percentage of 2-AP RNA bound. [RNA] is the concentration of 2-AP RNA. EC50 is the EC50 of Synucleozid determined in the assay above. [Synucleozid] is the concentration of Synucleozid. Cc is the concentration of competitive RNA. Kd is competitive dissociation constant and A is a constant.
# [7] = test system: RNA-12 (fully base paired RNA); assay: Competitive binding assay (2-AP), RNA-12
# Method: as §3, §4
# [8] = test system: RNA-2 to 5 (other non-canonically paired regions replaced with base pairs); assay: Competitive binding assay (2-AP), RNA-2 to 5
# Method: as §3, §4
# T1 sequence (P21399 whole entry, species assumed, one chain of several): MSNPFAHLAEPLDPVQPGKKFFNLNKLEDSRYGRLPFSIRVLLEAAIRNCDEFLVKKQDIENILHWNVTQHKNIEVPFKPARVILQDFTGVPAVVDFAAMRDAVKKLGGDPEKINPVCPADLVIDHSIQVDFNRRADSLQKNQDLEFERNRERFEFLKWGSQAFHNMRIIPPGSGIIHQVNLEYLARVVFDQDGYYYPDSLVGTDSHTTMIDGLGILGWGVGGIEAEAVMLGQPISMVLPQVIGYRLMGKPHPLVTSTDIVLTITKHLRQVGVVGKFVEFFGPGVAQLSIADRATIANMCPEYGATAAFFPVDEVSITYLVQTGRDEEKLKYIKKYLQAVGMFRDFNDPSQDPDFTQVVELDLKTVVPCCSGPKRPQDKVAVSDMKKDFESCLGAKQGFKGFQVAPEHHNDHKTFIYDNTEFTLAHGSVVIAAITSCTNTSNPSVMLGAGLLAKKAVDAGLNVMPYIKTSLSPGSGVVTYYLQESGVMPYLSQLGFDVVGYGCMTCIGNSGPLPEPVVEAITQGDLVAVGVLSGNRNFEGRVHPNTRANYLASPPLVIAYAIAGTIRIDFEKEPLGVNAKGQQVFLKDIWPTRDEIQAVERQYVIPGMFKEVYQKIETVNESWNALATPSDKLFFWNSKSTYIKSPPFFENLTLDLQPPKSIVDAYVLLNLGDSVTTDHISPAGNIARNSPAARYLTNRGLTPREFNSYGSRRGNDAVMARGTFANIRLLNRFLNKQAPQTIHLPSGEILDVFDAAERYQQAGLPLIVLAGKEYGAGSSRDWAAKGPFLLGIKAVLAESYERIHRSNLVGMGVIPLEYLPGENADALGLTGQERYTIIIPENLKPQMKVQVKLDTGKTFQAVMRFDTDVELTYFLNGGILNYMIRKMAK
smiles,measurement,setting,value
N=C(N)c1ccc(Nc2ccc(-c3cc4ccc(C(=N)N)cc4[nH]3)cc2)cc1 [Synucleozid A],"inhibition of translation, luciferase fused to ferritin 5′ UTR",ferritin 5′ UTR,~10%
same,cell viability (MTS),SH-SY5Y cells,no toxicity
same,cell viability (MTS),SH-SY5Y cells; listed as Synucleozid,no effect
same,EC50,[1],2.72 ± 0.37 µM
same,EC50,[1]; listed as Synucleozid,2.7 ± 0.4 µM
same,Kd,[2],~20 µM
same,reduction of avidity compared to the native IRE,[2],10 fold
same,Kd,[3],~20 µM
same,reduction of avidity compared to the native IRE,[3],10 fold
same,Kd,[4],~20 µM
same,reduction of avidity compared to the native IRE,[4],10 fold
same,reduction of ASO-induced unfolding (FRET),[5],only able to reduce the extent of unfolding induced by ASO(1-10) and ASO(40-50)
same,effect on SNCA mRNA cleavage by ASO(29-39),SNCA mRNA,no effect; also recorded: Protection is not observed
same,effect with the control ASO,SNCA mRNA,no effect
same,EC50,SNCA mRNA; read-out: EC50 for inhibition of SNCA mRNA cleavage by ASO(1-10),1 µM
same,effect on binding of IRP-1 to SNCA IRE RNA,[6],"Neither Synucleozid concentration (0.2, 1, 5 μM) nor pre-incubation time (1, 5, 15, 60 min) has any significant effect"
same,effect on translation of luciferase fused to PrP 5′ UTR,PrP 5′ UTR,no effect
same,competitor RNA concentration needed for recovery of 2-AP emission,tRNA,> 100 µM
same,competitor RNA concentration needed for recovery of 2-AP emission,[7],> 100 µM
same,effect of mutation on Synucleozid binding,[8],no effect
